Results taken from ChEMBL document CHEMBL4020795, “One-pot microwave assisted stereoselective synthesis of novel dihydro-2'H-spiro[indene-2,1'-pyrrolo-[3,4-c]pyrrole]-tetraones and evaluation of their antimycobacterial activity and inhibition of AChE” (Bioorg Med Chem Lett, 2017).
Converted amounts (≈) assume the structure as drawn.

Legend:
Vero = assay: Cytotoxicity against monkey Vero cells assessed as decrease in cell viability after 72 hrs by MTT assay; type: cell-based; conditions: Chlorocebus sabaeus
[1] = test system: Mycobacterium tuberculosis; assay: Antimicrobial activity against Mycobacterium tuberculosis H37Rv by Alamar blue assay; type: functional
Acetylcholinesterase = Acetylcholinesterase (Homo sapiens, UniProt P22303); assay: Inhibition of AChE (unknown origin) using […] as substrate preincubated for 15 mins followed by substrate addition measured every minute by spectrophotometric analysis
[2] = test system: Mycobacterium tuberculosis; assay: Potency index, ratio of pyrimethamine IC50 to test compound IC50 for Mycobacterium tuberculosis H37Rv; type: functional
[3] = test system: Mycobacterium tuberculosis; assay: Potency index, ratio of cycloserine IC50 to test compound IC50 for Mycobacterium tuberculosis H37Rv; type: functional

Acetylcholinesterase, sequence (P22303 whole entry): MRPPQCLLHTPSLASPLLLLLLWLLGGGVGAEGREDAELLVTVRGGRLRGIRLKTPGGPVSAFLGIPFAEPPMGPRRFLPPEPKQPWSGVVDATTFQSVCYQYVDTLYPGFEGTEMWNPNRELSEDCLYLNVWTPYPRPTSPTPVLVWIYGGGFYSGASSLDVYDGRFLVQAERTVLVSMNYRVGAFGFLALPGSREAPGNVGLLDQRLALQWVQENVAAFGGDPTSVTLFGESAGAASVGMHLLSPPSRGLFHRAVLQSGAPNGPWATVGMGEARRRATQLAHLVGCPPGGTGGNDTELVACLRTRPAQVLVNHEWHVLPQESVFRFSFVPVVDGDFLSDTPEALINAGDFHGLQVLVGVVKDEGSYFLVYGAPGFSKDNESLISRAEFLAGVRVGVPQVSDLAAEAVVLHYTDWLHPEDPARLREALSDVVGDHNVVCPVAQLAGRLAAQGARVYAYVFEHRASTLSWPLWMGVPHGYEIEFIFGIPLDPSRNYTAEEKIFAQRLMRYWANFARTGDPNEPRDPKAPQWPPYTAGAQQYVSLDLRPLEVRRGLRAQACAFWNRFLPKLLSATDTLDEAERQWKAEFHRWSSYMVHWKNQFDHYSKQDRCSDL

Row | SMILES | IC50 (Vero) | IC50 [1] | IC90 [1] | MIC [1] | IC50 (Acetylcholinesterase) | Ratio IC50 [2] | Ratio IC50 [3]
1 | CN1CC2C(=O)N(Cc3ccccc3)C(=O)C2C12C(=O)c1ccccc1C2=O (stereo not given) | > 6.25 µg/mL | 55 µM | 96.4 µM | 100 µM (≈ 37.4 µg/mL) | 41.2 µM |  | 
2 | COc1ccccc1N1C(=O)C2CN(C)C3(C(=O)c4ccccc4C3=O)C2C1=O (stereo not given) | > 6.25 µg/mL | 28.3 µM | 46.5 µM | 50 µM (≈ 19.5 µg/mL) | 11.1 µM |  | 
3 | CCc1ccc(N2C(=O)C3CN(C)C4(C(=O)c5ccccc5C4=O)C3C2=O)cc1 (stereo not given) | > 6.25 µg/mL | 21.9 µM | 47.9 µM | 50 µM (≈ 19.4 µg/mL) | 44.6 µM |  | 
4 | CN1CC2C(=O)N(c3ccc(F)cc3)C(=O)C2C12C(=O)c1ccccc1C2=O (stereo not given) | > 6.25 µg/mL | 2.17 µM | 7.86 µM | 50 µM (≈ 18.9 µg/mL) | 50.1 µM |  | 
5 | COc1ccc(N2C(=O)C3CN(C)C4(C(=O)c5ccccc5C4=O)C3C2=O)cc1 (stereo not given) | > 6.25 µg/mL | 17.2 µM | 35.5 µM | 50 µM (≈ 19.5 µg/mL) | 0.78 µM |  | 
6 | CN1CC2C(=O)N(c3ccccc3)C(=O)C2C12C(=O)c1ccccc1C2=O (stereo not given) | > 6.25 µg/mL | 13.2 µM | 25.9 µM | 50 µM (≈ 18 µg/mL) | 69.8 µM |  | 
7 | CN1CC2C(=O)N(c3cccc(F)c3)C(=O)C2C12C(=O)c1ccccc1C2=O (stereo not given) | > 6.25 µg/mL | 28.6 µM | 47.7 µM | 50 µM (≈ 18.9 µg/mL) | 80.1 µM |  | 
8 | CN1C(=O)C2CN(C)C3(C(=O)c4ccccc4C3=O)C2C1=O (stereo not given) | > 6.25 µg/mL | 22.9 µM | 34.6 µM | 50 µM (≈ 14.9 µg/mL) | 2.1 µM |  | 
9 | CN1CC2C(=O)N(C3CCCCC3)C(=O)C2C12C(=O)c1ccccc1C2=O (stereo not given) | > 6.25 µg/mL | 15.9 µM | 34.6 µM | 100 µM (≈ 36.6 µg/mL) | 4.12 µM |  | 
10 | Cc1ccc(N2C(=O)C3CN(C)C4(C(=O)c5ccccc5C4=O)C3C2=O)cc1 (stereo not given) | > 6.25 µg/mL | 40 µM | 71.9 µM | 100 µM (≈ 37.4 µg/mL) | 7.34 µM |  | 
11 | CC(C)c1ccc(N2C(=O)C3CN(C)C4(C(=O)c5ccccc5C4=O)C3C2=O)cc1 (stereo not given) | > 6.25 µg/mL | 28.5 µM | 52.4 µM | 100 µM (≈ 40.2 µg/mL) | 12.2 µM |  | 
12 | CN1CC2C(=O)N(c3ccc(Br)cc3)C(=O)C2C12C(=O)c1ccccc1C2=O (stereo not given) | > 6.25 µg/mL | 11.1 µM | 22 µM | 50 µM (≈ 22 µg/mL) | 73.3 µM |  | 
13 | CN1CC2C(=O)N(c3ccc(Cl)cc3)C(=O)C2C12C(=O)c1ccccc1C2=O (stereo not given) | > 6.25 µg/mL | 1.3 µM | 5.3 µM | 25 µM (≈ 9.87 µg/mL) | 27.9 µM | 37 | 12
14 | CN1CC2C(=O)N(c3ccc([N+](=O)[O-])cc3)C(=O)C2C12C(=O)c1ccccc1C2=O (stereo not given) | > 6.25 µg/mL | 47.2 µM | 66.5 µM | 100 µM (≈ 40.5 µg/mL) | 6.6 µM |  | 
15 | NCC[C@H](O)C(=O)N[C@@H]1C[C@H](N)[C@@H](O[C@H]2O[C@H](CN)[C@@H](O)[C@H](O)[C@H]2O)[C@H](O)[C@H]1O[C@H]1O[C@H](CO)[C@@H](O)[C@H](N)[C@H]1O [AMIKACIN] | > 6.25 µg/mL |  | 0.08 µM | 0.16 µM (≈ 0.0937 µg/mL) |  |  | 
16 | N[C@@H]1CONC1=O [CYCLOSERINE] | > 6.25 µg/mL |  |  | 25 µM (≈ 2.55 µg/mL) |  |  | 
17 | CC[C@@H](CO)NCCN[C@@H](CC)CO [ETHAMBUTOL] | > 6.25 µg/mL | < 1.56 µM |  | 12.5 µM (≈ 2.55 µg/mL) |  |  | 
18 | NNC(=O)c1ccncc1 [ISONIAZID] | > 6.25 µg/mL |  | 0.29 µM | 0.31 µM (≈ 0.0425 µg/mL) |  |  | 
19 | CCc1nc(N)nc(N)c1-c1ccc(Cl)cc1 [PYRIMETHAMINE] | > 6.25 µg/mL |  |  | 100 µM (≈ 24.9 µg/mL) |  |  | 
